Laboratory results as given in patent US12522597B2, “Methods and compositions for modulating splicing” (Skyhawk Therapeutics, Inc., priority 2019, dated 2026).
Where two headings read alike, the source gives them in different places.

Assays:
mHTT protein = mHTT protein assay (2B7-MW1, Mesoscale Discovery); assay type: cell-based, human; conditions: GM04724 (CAG 70/20) Huntington's disease patient lymphoblast cells, 48 hours, 2B7-MW1 MSD; read-out: HTT Potency - Protein EC50 mHTT (average)
Procedure, shortened: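 mHTT levels were read with the 2B7-MW1 antibody pair (N17 and polyQ epitopes) on MSD after 48 h dosing, 10 μM–0.6 nM. Cells were GM04724 HD lymphoblasts (CAG 70/20). A replica plate was read by CTG for cell viability.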

[1] = tested on: Huntingtin (HTT) transcripts; test: Quantitative splicing assay (HTT), qPCR; assay type: cell-based; conditions: Homo sapiens, GM04724 (CAG 70/20) Huntington's disease patient lymphoblasts, 24 h
Procedure: GM04724 (CAG 70/20) Huntington's disease patient lymphoblasts (Coriell) are plated in 96-wel v-bottom plates at 50,000 cells/well. Immediately after plating, cells are dosed with compound for 24 h at concentrations ranging from 2.5 uM to 0.15 nM (0.1% DMSO). Treated cells are lysed and cDNA synthesized using the Fast Advanced Cells-to-Ct kit (Thermofisher A35378) according to the manufacturer's instructions. 2 uL of each cDNA are used in qPCR reactions to confirm the compound-induced inclusion of a cryptic exon within intron 49 of the Huntingtin (HTT) transcripts. The qPCR reactions are prepared in 384-well plates in 10 uL volume, using TaqMan™ Fast Advanced Master Mix [ThermoFisher; 4444965] with primers and probes shown in the table below. Reactions are run in a Quant Studio 6 qPCR instrument with default settings.

[2] = tested on: MDR1-MDCK cell monolayers; test: MDCK-MDR1 permeability assay (BBB penetration potential); assay type: in vitro ADME; conditions: dog, MDCK-MDR1, 120 min, 5 μM, pH 7.4
Procedure: (§1) Each determination is performed in duplicate. […] Analytical conditions are outlined below.

MDR1 = test: as above; assay type: in vitro ADME; conditions: dog; for efflux ratio at 120 min, 5 μM: MDCK-MDR1, pH 7.4, MDCK-MDR1: Efflux; for Papp A→B at 120 min, 5 μM: MDCK-MDR1, pH 7.4, MDCK-MDR1: Papp A-B; for Papp B→A at 120 min, 5 μM: MDCK-MDR1, pH 7.4, MDCK-MDR1: Papp B-A
Procedure: as §1

[3] = qPCR HTTex49_50, read-out: HTT Potency - Splicing: E49-50 EC50 (average)
[4] = qPCR cryptic exon 49b inclusion, read-out: HTT Potency - Splicing: E49b EC50 (average)

Row | Structure (SMILES) | EC50 (mHTT protein) | EC50 [1, 3] | EC50 [1, 4] | MDCK-MDR1: % Recov A-B [2] | MDCK-MDR1: % Recov B-A [2] | efflux ratio at 120 min, 5 μM (MDR1) | Papp A→B at 120 min, 5 μM (MDR1) | Papp B→A at 120 min, 5 μM (MDR1)
1 | Oc1cc(-c2cn[nH]c2)ccc1-c1ccc(O[C@@H]2C[C@H]3CC[C@H](N3)[C@@H]2F)nn1 (single isomer, unassigned) [42-ENT2] | 0.01 to 15 nM | 0.01 to 15 nM | 0.01 to 15 nM | 85% | 86% | 12 | 3.2 ×10⁻⁶ cm/s | 38.5 ×10⁻⁶ cm/s
2 | COc1cc(-c2ccc(-c3ccc(O[C@H]4C[C@@H]5CCC[C@@H](N5)[C@H]4F)nn3)c(O)c2)cnn1 (single isomer, unassigned) [76-ENT2] | 0.01 to 15 nM | 0.01 to 15 nM | 0.01 to 15 nM | 82% | 85% | 10 | 4.19 ×10⁻⁶ cm/s | 39.9 ×10⁻⁶ cm/s
3 | Oc1cc(-c2cnccn2)ccc1-c1ccc(O[C@H]2C[C@@H]3CCC[C@@H](N3)[C@H]2F)nn1 (single isomer, unassigned) [79-ENT2] | 101 to 500 nM | 51 to 100 nM | 51 to 100 nM | 74% | 82% | 3 | 9.52 ×10⁻⁶ cm/s | 25.8 ×10⁻⁶ cm/s
4 | Cn1cnc2cc(O)c(-c3ccc(O[C@H]4C[C@]5(C)CCC[C@@](C)(N5)[C@H]4F)nn3)cc2c1=O (single isomer, unassigned) [133-ENT1] | 0.01 to 15 nM | 101 to 500 nM | 51 to 100 nM | 81% | 87% | 10 | 4.98 ×10⁻⁶ cm/s | 52.4 ×10⁻⁶ cm/s
5 | Cn1cc(-c2ccc(-c3ccc(O[C@@H]4C[C@H]5CCC[C@H](N5)[C@H]4F)nn3)c(O)c2)cn1 (single isomer, unassigned) [49-ENT1] | 51 to 100 nM | 51 to 100 nM | 51 to 100 nM | 49% | 82% | 2 | 5.36 ×10⁻⁶ cm/s | 11.8 ×10⁻⁶ cm/s
6 | Cn1ccc2cc(O)c(-c3ccc(O[C@@H]4C[C@@]5(C)CC[C@](C)(N5)[C@@H]4F)nn3)cc2c1=O (single isomer, unassigned) [130-ENT2] | 0.01 to 15 nM | 16 to 50 nM | 16 to 50 nM | 78% | 79% | 5 | 9.9 ×10⁻⁶ cm/s | 49.6 ×10⁻⁶ cm/s
7 | Oc1cc(-n2ccc(F)n2)ccc1-c1ccc(O[C@@H]2C[C@H]3CCC[C@H](N3)[C@@H]2F)nn1 (single isomer, unassigned) [115-ENT1] | 16 to 50 nM | 0.01 to 15 nM | 0.01 to 15 nM | 44% | 70% | 3 | 7.15 ×10⁻⁶ cm/s | 20.3 ×10⁻⁶ cm/s
8 | COc1cc(-c2ccc(-c3ccc(O[C@H]4C[C@]5(C)CC[C@@](C)(N5)[C@H]4F)nn3)c(O)c2)cnn1 (single isomer, unassigned) [157-ENT2] | 16 to 50 nM | 16 to 50 nM | 16 to 50 nM | 82% | 81% | 5 | 6.79 ×10⁻⁶ cm/s | 36.1 ×10⁻⁶ cm/s
9 | Cc1cncc(-c2ccc(-c3ccc(O[C@H]4C[C@@H]5CCC[C@@H](N5)[C@H]4F)nn3)c(O)c2)c1 (single isomer, unassigned) [89-ENT2] | 501 to 10000 nM | – | – | 55% | 70% | 13 | 2.61 ×10⁻⁶ cm/s | 34 ×10⁻⁶ cm/s
10 | Cc1cncc(-c2ccc(-c3ccc(O[C@H]4C[C@@H]5CCC[C@@H](N5)[C@H]4F)nn3)c(O)c2)n1 (single isomer, unassigned) [102-ENT2] | 101 to 500 nM | – | – | 86% | 89% | 6 | 7.93 ×10⁻⁶ cm/s | 48.4 ×10⁻⁶ cm/s
11 | Oc1cc(-n2cccn2)ccc1-c1ccc(O[C@@H]2C[C@H]3CC[C@H](N3)[C@@H]2F)nn1 (single isomer, unassigned) [35-ENT1] | 101 to 500 nM | – | – | 77% | 87% | 4 | 8.31 ×10⁻⁶ cm/s | 32.8 ×10⁻⁶ cm/s
12 | C[C@@]12CC[C@@](C)(N1)[C@@H](F)[C@@H](Oc1ccc(-c3ccc(-n4cccn4)cc3O)nn1)C2 (single isomer, unassigned) [153-ENT2] | 16 to 50 nM | – | – | 60% | 71% | 3 | 7.16 ×10⁻⁶ cm/s | 24.7 ×10⁻⁶ cm/s
13 | Cc1ncc(-c2ccc(-c3ccc(O[C@H]4C[C@@H]5CCC[C@@H](N5)[C@H]4F)nn3)c(O)c2)o1 (single isomer, unassigned) [93-ENT2] | 16 to 50 nM | – | – | 67% | 88% | 4 | 9.43 ×10⁻⁶ cm/s | 41.5 ×10⁻⁶ cm/s
14 | Oc1cc(-n2ccnc2)ccc1-c1ccc(O[C@H]2C[C@@H]3CC[C@@H](N3)[C@H]2F)nn1 (single isomer, unassigned) [36-ENT2] | 51 to 100 nM | – | – | 61% | 73% | 5 | 5.41 ×10⁻⁶ cm/s | 28.9 ×10⁻⁶ cm/s
15 | Oc1cc(-c2cc[nH]n2)ccc1-c1ccc(O[C@H]2C[C@@H]3CCC[C@@H](N3)[C@H]2F)nn1 (single isomer, unassigned) [66-ENT2] | 51 to 100 nM | – | – | 79% | 78% | 9 | 1.18 ×10⁻⁶ cm/s | 11.2 ×10⁻⁶ cm/s
16 | C[C@@]12CC[C@@](C)(N1)[C@@H](F)[C@@H](Oc1ccc(-c3ccc(C#N)cc3O)nn1)C2 (single isomer, unassigned) [152-ENT2] | 501 to 10000 nM | – | – | 92% | 100% | 5 | 10 ×10⁻⁶ cm/s | 53 ×10⁻⁶ cm/s
17 | Cn1cc(-c2cc(O)c(-c3ccc(O[C@H]4C[C@@H]5CCC(N5)[C@H]4F)nn3)cn2)cn1 (single isomer, unassigned) [63-ENT2] | 501 to 10000 nM | – | – | 96% | 107% | 38 | 0.26 ×10⁻⁶ cm/s | 9.6 ×10⁻⁶ cm/s
18 | Oc1cc(-c2ccc3nccn3c2)ccc1-c1ccc(O[C@@H]2C[C@H]3CCC[C@H](N3)[C@@H]2F)nn1 (single isomer, unassigned) [84-ENT1] | 16 to 50 nM | – | – | 44% | 72% | 11 | 1.56 ×10⁻⁶ cm/s | 17 ×10⁻⁶ cm/s
19 | Cc1ccc(-c2ccc(-c3ccc(O[C@H]4C[C@@H]5CCC[C@@H](N5)[C@H]4F)nn3)c(O)c2)o1 (single isomer, unassigned) [99-ENT2] | 101 to 500 nM | – | – | 16% | 55% | 1 | 6.11 ×10⁻⁶ cm/s | 6.02 ×10⁻⁶ cm/s
20 | Oc1cc2cnccc2cc1-c1ccc(O[C@@H]2C[C@H]3CCC[C@H](N3)[C@@H]2F)nn1 (single isomer, unassigned) [80-ENT1] | 101 to 500 nM | – | – | 70% | 78% | 4 | 7.47 ×10⁻⁶ cm/s | 31.4 ×10⁻⁶ cm/s
21 | Oc1cc(-c2cnn3ccccc23)ccc1-c1ccc(O[C@@H]2C[C@H]3CCC[C@H](N3)[C@@H]2F)nn1 (single isomer, unassigned) [91-ENT1] | 101 to 500 nM | – | – | 30% | 57% | 3 | 4.52 ×10⁻⁶ cm/s | 15.5 ×10⁻⁶ cm/s
22 | Cn1cc(-c2ccc(-c3ccc(O[C@@H]4C[C@H]5CCC[C@H](N5)[C@@H]4F)nn3)c(O)c2)c(F)n1 (single isomer, unassigned) [109-ENT1] | 16 to 50 nM | – | – | 57% | 76% | 3 | 5.54 ×10⁻⁶ cm/s | 18.9 ×10⁻⁶ cm/s
23 | Cc1cc(-c2ccc(-c3ccc(O[C@H]4C[C@@H]5CCC[C@@H](N5)[C@H]4F)nn3)c(O)c2)cnn1 (single isomer, unassigned) [90-ENT2] | 101 to 500 nM | – | – | 101% | 97% | 34 | 1.92 ×10⁻⁶ cm/s | 64.6 ×10⁻⁶ cm/s
